Experiments:
[1] = test system: Pentobarbital Sodium induced sleep activity in experimental mice; assay: Pentobarbital Sodium induced sleep activity in mice; assay type: in vivo, Swiss Albino Mice; conditions: 50 mg HED PX or 1-MX, 25 mg HED CA; for Duration of sleep / Onset time of sleep: test substance intraperitoneal 30 min before 40 mg/kg Pentobarbital sodium; for Duration of sleep, Improvement over P-Control / Onset time of sleep, Improvement over P-Control: vs Pathological Control
Procedure: The present example was conducted to evaluate the efficacy of test substances on Pentobarbital Sodium induced sleep activity in experimental mice.
The mice were randomized into nine groups containing eight mice in each group. […] The dose information can be found below in Table 2.
On the day of experiment, mice from different groups were treated with the control and test substances respectively. After thirty minutes, all groups of mice, except for the Normal Control group were, administered with 40 mg/kg body doses of Pentobarbital sodium to induce sleep. Administration of the test substances was done via intraperitoneal injection. The onset time of sleep was recorded for all the mice. After induction of sleep, mice were placed in the inverted position and when sedation was over, time point where the mice return to its normal posture was noted. The time interval between dosing and start of sleep was recorded as latency time.

[2] = test system: Scopolamine induced amnesia in rats; assay: Cognitive enhancing effect, Elevated Plus Maze, Scopolamine induced amnesia in rats; assay type: in vivo, Swiss Albino Wistar rats; conditions: for rat escape latency, Elevated Plus Maze: oral daily for ten days, day 10, 30 min before 1 mg/kg Scopolamine i.p., 50 mg HED PX or 1-MX, 25 mg HED CA; for rat escape latency, Elevated Plus Maze, Improvement over P-Control: vs Pathological Control (Scopolamine)
Procedure: (§1) The example was to evaluate the effect of the test substances on behavioral activity/memory enhancing activity in experimental rats.
(§2) The rats were randomized into nine groups containing eight rats in each group. […] The rats were treated with test substances daily for ten consecutive days.
(§3) On the tenth day test, test substances were administered orally thirty minutes before a 1 mg/kg body weight Scopolamine injection to induce amnesia in rats to all groups except control group. Administration of the Scopolamine injections were done via intraperitoneal injection. This was followed by behavioral test using Elevated Plus Maze apparatus to measure the long-term memory enhancing activity.

brain biomarkers [3] = assay: Brain biomarkers in rats of the Elevated Plus Maze example; assay type: in vivo, Swiss Albino Wistar rats; parameters: Achetylcholine, Improvement over P-Control / Dopamine, Improvement over P-Control / Glutathione, Improvement over P-Control / Catalse, Improvement over P-Control / BDNF, Improvement over P-Control / Serotonin, Improvement over P-Control / Cortisol, Improvement over P-Control: concentration or dose not given beside the values; conditions: for Achetylcholine, brain biomarker / BDNF, brain biomarker / Catalse, brain biomarker / Cortisol, brain biomarker / Dopamine, brain biomarker / Glutathione, brain biomarker / Serotonin, brain biomarker: oral ten days, Scopolamine 1 mg/kg; for Achetylcholine, Improvement over P-Control / BDNF, Improvement over P-Control / Catalse, Improvement over P-Control / Cortisol, Improvement over P-Control / Dopamine, Improvement over P-Control / Glutathione, Improvement over P-Control / Serotonin, Improvement over P-Control: vs Pathological Control (Scopolamine)
Procedure: as §2, §3
(§4) Several brain biomarkers were also measured in the rats.

[4] = test system: Scopolamine induced amnesia in rats; assay: Cognitive enhancing effect, Morris Water Maze, Scopolamine induced amnesia in rats; assay type: in vivo, Swiss Albino Wistar rats; conditions: for rat escape latency, Morris Water Maze: oral daily for ten days, day 10, 30 min before 1 mg/kg Scopolamine i.p., 50 mg HED PX or 1-MX, 25 mg HED CA; for rat escape latency, Morris Water Maze, Improvement over P-Control: vs Pathological Control (Scopolamine)
Procedure: as §1, §2
as §3, with “Morris Water” for “Elevated Plus”

brain biomarkers [5] = assay: Brain biomarkers in rats of the Morris Water Maze example; assay type: in vivo, Swiss Albino Wistar rats; parameters: Achetylcholine, Improvement over P-Control / Dopamine, Improvement over P-Control / Glutathione, Improvement over P-Control: concentration or dose not given beside the values; conditions: for Achetylcholine, brain biomarker / Dopamine, brain biomarker / Glutathione, brain biomarker: oral ten days, Scopolamine 1 mg/kg; for Achetylcholine, Improvement over P-Control / Dopamine, Improvement over P-Control / Glutathione, Improvement over P-Control: vs Pathological Control (Scopolamine)
Procedure: as §2
as §3, with “Morris Water” for “Elevated Plus”
as §4

Structure (SMILES) | Duration of sleep [1] [min] | Onset time of sleep [1] [min] | Duration of sleep, Improvement over P-Control [1] [%] | Onset time of sleep, Improvement over P-Control [1] [%] | rat escape latency, Elevated Plus Maze [2] [s] | rat escape latency, Elevated Plus Maze, Improvement over P-Control [2] [%] | Achetylcholine, brain biomarker (brain biomarkers [3]) [U/ml] | BDNF, brain biomarker (brain biomarkers [3]) [pg/mL] | Catalse, brain biomarker (brain biomarkers [3]) [U/mL] | Cortisol, brain biomarker (brain biomarkers [3]) [ng/mL] | Dopamine, brain biomarker (brain biomarkers [3]) [ng/L] | Glutathione, brain biomarker (brain biomarkers [3]) [µg/mL] | Serotonin, brain biomarker (brain biomarkers [3]) [ng/mL] | Achetylcholine, Improvement over P-Control (brain biomarkers [3]) [%] | BDNF, Improvement over P-Control (brain biomarkers [3]) [%] | Catalse, Improvement over P-Control (brain biomarkers [3]) [%] | Cortisol, Improvement over P-Control (brain biomarkers [3]) [%] | Dopamine, Improvement over P-Control (brain biomarkers [3]) [%] | Glutathione, Improvement over P-Control (brain biomarkers [3]) [%] | Serotonin, Improvement over P-Control (brain biomarkers [3]) [%] | further results
Cn1c(=O)[nH]c2nc[nH]c2c1=O [1-Methylxanthine, 1-methylxanthine] | 57.75 | 42.25 | 107 | −16 | 33.89 | 49 | 28.97 | 17.29 | 155.96 | 79.4 | 14.51 | 17.94 | 41.63 | 34 | 31 | 29 | −12 | 25 | 32 | −12 | rat escape latency, Morris Water Maze [4]: 32.43 s; rat escape latency, Morris Water Maze, Improvement over P-Control [4]: 51%; Achetylcholine, brain biomarker (brain biomarkers [5]): 30.87 U/ml; Dopamine, brain biomarker (brain biomarkers [5]): 13.66 ng/L; Glutathione, brain biomarker (brain biomarkers [5]): 16.06 µg/mL; Achetylcholine, Improvement over P-Control (brain biomarkers [5]): 53%; Dopamine, Improvement over P-Control (brain biomarkers [5]): 33%; Glutathione, Improvement over P-Control (brain biomarkers [5]): 34%
O=C(/C=C/c1ccc(O)c(O)c1)O[C@@H]1C[C@](O)(C(=O)O)C[C@@H](O)[C@H]1O [Chlorogenic acid] | 74.88 | 40.5 | 169 | −20 | 30 | 68 | 33.17 | 18.05 | 161.91 | 68.51 | 15.58 | 19.89 | 38.43 | 54 | 37 | 34 | −24 | 34 | 46 | −19 | rat escape latency, Morris Water Maze [4]: 28.54 s; rat escape latency, Morris Water Maze, Improvement over P-Control [4]: 72%; Achetylcholine, brain biomarker (brain biomarkers [5]): 33.03 U/ml; Dopamine, brain biomarker (brain biomarkers [5]): 14.74 ng/L; Glutathione, brain biomarker (brain biomarkers [5]): 16.85 µg/mL; Achetylcholine, Improvement over P-Control (brain biomarkers [5]): 63%; Dopamine, Improvement over P-Control (brain biomarkers [5]): 43%; Glutathione, Improvement over P-Control (brain biomarkers [5]): 41%
Cn1c(=O)[nH]c2ncn(C)c2c1=O [Paraxanthine] | 66.13 | 41.5 | 137 | −18 | 36.66 | 38 | 32.04 | 17.72 | 159.83 | 73.99 | 15.06 | 19.57 | 38.03 | 49 | 34 | 32 | −18 | 30 | 44 | −20 | rat escape latency, Morris Water Maze [4]: 30.46 s; rat escape latency, Morris Water Maze, Improvement over P-Control [4]: 61%; Achetylcholine, brain biomarker (brain biomarkers [5]): 34.16 U/ml; Dopamine, brain biomarker (brain biomarkers [5]): 14.21 ng/L; Glutathione, brain biomarker (brain biomarkers [5]): 17.47 µg/mL; Achetylcholine, Improvement over P-Control (brain biomarkers [5]): 69%; Dopamine, Improvement over P-Control (brain biomarkers [5]): 38%; Glutathione, Improvement over P-Control (brain biomarkers [5]): 46%

Source: patent publication US20240216381A1, “Px-cholorogenic Acid Comps” (PX ING, LLC, priority 2022, published 2024)
